According to article PMC7145527 (2019):
Each block holds one compound with its values, some of them ahead of it.

Legend:
[1] = system: wt Chili RNA aptamer (RNA, aptamer) GGCUAGCUGGAGGGGCGCCAGUUCGCUGGUGGUUGGGUGCGGUCGGCUAGCC; experiment: fluorescence activation
[2] = system: wt Chili RNA aptamer (RNA, aptamer) GGCUAGCUGGAGGGGCGCCAGUUCGCUGGUGGUUGGGUGCGGUCGGCUAGCC; experiment: fluorescence titration; details: K+ 125 mM, Mg2+ 5 mM, HEPES pH 7.5, incubated at 4 °C 16 h
[3] = system: wt Chili RNA aptamer (RNA, aptamer) GGCUAGCUGGAGGGGCGCCAGUUCGCUGGUGGUUGGGUGCGGUCGGCUAGCC; experiment: fluorescence competition; details: K+ 125 mM, Mg2+ 5 mM; 40 mM HEPES pH 7.5; competes with DMHBAI; up to 5 µM (tenfold excess)
[4] = system: Chili C44U (RNA, aptamer) GGCUAGCUGGAGGGGCGCCAGUUCGCUGGUGGUUGGGUGCGGUUGGCUAGCC; experiment: fluorescence activation; details: K+ 125 mM, Mg2+ 5 mM; HEPES pH 7.5; I540 122.6 versus wt 200.2
[5] = system: Chili C16U (RNA, aptamer) GGCUAGCUGGAGGGGUGCCAGUUCGCUGGUGGUUGGGUGCGGUCGGCUAGCC; experiment: fluorescence activation; details: K+ 125 mM, Mg2+ 5 mM; HEPES pH 7.5; inferred from absent fluorescence; 0.5 µM RNA and dye
[6] = system: Chili G31A (RNA, aptamer) GGCUAGCUGGAGGGGCGCCAGUUCGCUGGUAGUUGGGUGCGGUCGGCUAGCC; experiment: fluorescence activation; details: K+ 125 mM, Mg2+ 5 mM; HEPES pH 7.5; inferred from absent fluorescence; 0.5 µM RNA and dye
[7] = system: Chili C40U (RNA, aptamer) GGCUAGCUGGAGGGGCGCCAGUUCGCUGGUGGUUGGGUGUGGUCGGCUAGCC; experiment: fluorescence activation; details: K+ 125 mM, Mg2+ 5 mM; HEPES pH 7.5; I540 156.1 versus wt 200.2
[8] = system: wt Chili RNA aptamer (RNA, aptamer) GGCUAGCUGGAGGGGCGCCAGUUCGCUGGUGGUUGGGUGCGGUCGGCUAGCC; experiment: isothermal titration calorimetry; details: K+ 125 mM, Mg2+ 5 mM; HEPES pH 7.5, 25 °C
[9] = system: Chili G35A (RNA, aptamer) GGCUAGCUGGAGGGGCGCCAGUUCGCUGGUGGUUAGGUGCGGUCGGCUAGCC; experiment: fluorescence activation; details: K+ 125 mM, Mg2+ 5 mM, HEPES pH 7.5
[10] = system: Chili C16U/G31A (RNA, aptamer) GGCUAGCUGGAGGGGUGCCAGUUCGCUGGUAGUUGGGUGCGGUCGGCUAGCC; experiment: fluorescence activation; details: K+ 125 mM, Mg2+ 5 mM; HEPES pH 7.5; inferred from absent fluorescence; 0.5 µM RNA and dye
[11] = system: Chili U38C (RNA, aptamer) GGCUAGCUGGAGGGGCGCCAGUUCGCUGGUGGUUGGGCGCGGUCGGCUAGCC; experiment: fluorescence activation; details: K+ 125 mM, Mg2+ 5 mM; HEPES pH 7.5; I540 129.3 versus wt 200.2
[12] = system: Chili G36A (RNA, aptamer) GGCUAGCUGGAGGGGCGCCAGUUCGCUGGUGGUUGAGUGCGGUCGGCUAGCC; experiment: fluorescence activation; details: K+ 125 mM, Mg2+ 5 mM, HEPES pH 7.5
[13] = system: Chili U34C (RNA, aptamer) GGCUAGCUGGAGGGGCGCCAGUUCGCUGGUGGUCGGGUGCGGUCGGCUAGCC; experiment: fluorescence activation; details: K+ 125 mM, Mg2+ 5 mM; HEPES pH 7.5; I540 203.1 versus wt 200.2
[14] = system: wt Chili RNA aptamer (RNA, aptamer) GGCUAGCUGGAGGGGCGCCAGUUCGCUGGUGGUUGGGUGCGGUCGGCUAGCC; experiment: imino 1H NMR; details: K+ 50 mM, Mg2+ 1 mM; 25 mM KPi pH 7.4; 20 µM RNA, 20 µM dye
[15] = system: wt Chili RNA aptamer (RNA, aptamer) GGCUAGCUGGAGGGGCGCCAGUUCGCUGGUGGUUGGGUGCGGUCGGCUAGCC; experiment: fluorescence activation kinetics; details: K+ 125 mM, Mg2+ 5 mM; 40 mM HEPES pH 7.5, 25 °C; 0.025 µM RNA
[16] = K+ 125 mM, Mg2+ 5 mM, 80 mM HEPES pH 7.5, 0.5 µM RNA, 0.5 µM dye
[17] = weaker fluorescence than parent Chili

Structure (SMILES): CN1C(=Cc2cc[n+](C)c3ccccc23)Sc2ccccc21
- binding [1]: yes

Structure (SMILES): Cc1ccc2c(c1)sc(-c1ccc(N(C)C)cc1)[n+]2C
- binding [1]: yes

Structure (SMILES): COc1cc(/C=C2\N=C(C)N(C)C2=O)cc(Br)c1O
- binding [1, 16]: yes

Structure (SMILES): COc1cc(/C=C2N=C(/C=C/c3c[nH]cn3)N(C)C\2=O)cc(OC)c1O
- binding [1, 16]: yes

Structure (SMILES): COc1cc(/C=C2N=C(/C=C/c3c[nH]c4ccccc34)N(C)C\2=O)cc(OC)c1O
- binding [1, 16]: yes

Structure (SMILES): COc1cc(/C=C2N=C(/C=C/c3ccncc3)N(C)C\2=O)cc(OC)c1O
- binding [14]: yes

Structure (SMILES): COc1cc(/C=C2\N=C(C)N([C@H]3CC[C@H](C)CC3)C2=O)cc(OC)c1O
- binding [1, 16]: yes

Structure (SMILES): COc1cc(/C=C2N=C(/C=C/c3ccccc3)N(C)C\2=O)cc(OC)c1O
- binding [14]: yes

Structure (SMILES): COc1cc(/C=C2N=C(/C=C/c3ccccc3)N(c3ccc([N+](C)(C)C)cc3)C\2=O)cc(OC)c1O
- binding [1, 16]: yes

Results, then the compound that gave them:

- binding [1, 16]: yes
Structure (SMILES): COc1cc(/C=C2N=C(/C=C/c3c[nH]c4ccccc34)N(c3ccc(C)cc3)C\2=O)cc(OC)c1O

- KD ([2]; dye 0.1 µM): 0.065 ± 0.007 µM
Structure (SMILES): COc1ccc(N2C(=O)/C(=C/c3cc(OC)c(O)c(OC)c3)N=C2C)cc1

- KD ([2]; Figure S6 legend instead prints 0.377±0.024 µM): 0.151 ± 0.021 µM
Structure (SMILES): COc1cc(/C=C2\N=C(C)N(c3ccc(C)cc3)C2=O)cc(OC)c1O

- binding [3]: no
Structure (SMILES): COc1ccc(N2C(=O)/C(=C/c3cc(OC)cc(OC)c3)N=C2C)cc1

- binding [4]: yes
- binding [5]: no
- binding [6]: no
- binding [7]: yes
- KD [8]: 0.371 ± 0.055 µM
- binding ([9]; I540 138.2 versus wt 200.2): yes
- binding [10]: no
- binding [11]: yes
- binding ([12]; I540 192.9 versus wt 200.2): yes
- binding [13]: yes
Structure (SMILES): COc1cc(/C=C2\N=C(C)N(C)C2=O)cc(OC)c1O

- kon [15]: 65000 M⁻¹ s⁻¹
Structure (SMILES): COc1cc(/C=C2\N=C(C=NO)N(c3ccc([N+](C)(C)C)cc3)C2=O)cc(OC)c1O

- binding [5]: no
- binding [6]: no
- kon [15]: 82000 M⁻¹ s⁻¹
- KD [8]: 0.0241 ± 0.0056 µM
- binding [9, 17]: yes
- binding [10]: no
- binding [12, 17]: yes
Structure (SMILES): COc1cc(/C=C2\N=C(C)N(c3ccc([N+](C)(C)C)cc3)C2=O)cc(OC)c1O

- binding [1, 16]: yes
Structure (SMILES): COc1cc(/C=C2\N=C(C)N(c3ccccc3)C2=O)cc(OC)c1O

- binding [1, 16]: yes
Structure (SMILES): CCN1C(=O)/C(=C/c2cc(OC)c(O)c(OC)c2)N=C1C

- binding [1, 16]: yes
Structure (SMILES): COc1ccc(N2C(=O)/C(=C/c3ccc(O)c(OC)c3)N=C2C)cc1
